These results are taken from patent publication US10246425B2, “3,5-diamino-6-chloro-N-(N-(4-phenylbutyl)carbamimidoyl) pyrazine-2-carboxamide compounds” (Parion Sciences, Inc., priority 2012, dated 2019).

Data set [1] has as its system human bronchial epithelial (HBE) cells. As to the kind of experiment: Airway surface liquid drug (ASL) clearance and metabolism by human airway epithelium. Format: in vitro ADME. On the procedure:
Assay 3. Airway Surface Liquid Drug (ASL) Clearance and Metabolism by Human Airway Epithelium
The disappearance of Compound II-d from the apical surface and airway epithelial metabolism were assessed in human bronchial epithelial (HBE) cells (Table 3). In these experiments 25 μL of a 25 μM solution of ENaC blocker was added to the apical surface of HBE cells grown at an air/liquid interface, and the drug concentration in the apical and basolateral compartment was measured over 2 h by UPLC.
Therefore, the compounds of Formula (A) have a longer half-life on mucosal surfaces compared to these know compounds as evidenced by the data shown in Table 4. The disappearance of Compound II-d from the apical surface and airway epithelial metabolism were assessed in HBE and compared to Comparative Example 1 (Table 4). In these experiments 25 μL of a 25 μM solution of ENaC blocker was added to the apical surface of HBE cells grown at an air/liquid interface, and the drug concentration in the apical and basolateral compartment was measured over 2 h by UPLC.

The subject of another data set is sheep. The data set is described as follows: Mucociliary clearance (MCC) studies in sheep. Format: in vivo. The source says: Assay 2. Mucociliary Clearance (MCC) Studies in Sheep
A short description of data set [2]: Plasma potassium in sheep of the MCC study (marker for hyperkalemia). On the procedure: The animal model that has been used most often to measure changes in MCC is the sheep model. The effect of compounds for enhancing mucociliary clearance (MCC) can be measured using an in vivo model described by Sabater et al., Journal of Applied Physiology, 1999, pp. 2191-2196, incorporated herein by reference. In these studies, adult sheep were restrained and nasally intubated with an endotracheal tube. Aerosolized test articles were administered over 10-15 minutes to sheep. Radiolabeled ^99mTc-sulfur colloid (TSC, 3.1 mg/mL; containing approximately 20 mCi) was then administered at a specified time four or eight hours after test article. The radiolabeled aerosol was administered through the endotracheal tube for about 5 minutes. The sheep were then extubated, and total radioactive counts in the lung were measured every 5 minutes for a 1-hour observation period. The rate of radiolabel clearance from the lung is representative of the MCC rate in the animal. The advantage of this system is that it closely simulates the human lung environment. The model also allows for the collection of simultaneous PK/PD information through plasma and urine sampling over the test period. There are also several techniques to measure the drug concentrations on the airway surface during the MCC measurements. These include the collection of exhaled breath condensates or a filter paper method to obtain ASL via bronchoscopy.
The ovine model described above was used to evaluate the in vivo effects (efficacy/durability) of aerosol-delivered Compound II-d on MCC. Treatments consisting of either 4 mL of Compound II-d, Comparative Example 1, (S)-3,5-diamino-6-chloro-N—(N-(4-(4-(2,3-diamino-3-oxopropoxy)phenyl)butyl)carbamimidoyl)pyrazine-2-carboxamide, vehicle (sterile distilled H2O), or test agent in combination with HS were tested. To determine if combining HS with Compound II-d MCC, HS was administered immediately following Compound II-d administration. […] Radioactive counts were measured in a central region in the right lung at 5 min intervals for one hour with a gamma camera. […]

Another data set has as its system Primary CBE cells. As to the kind of experiment: Airway hydration and sodium channel block (in vitro model): surface liquid retention. Format: cell-based, canine. To be noted: for surface liquid retained on apical surface (% initial volume): 50 μl buffer, 10 μM. On the procedure: Assay 4. Airway Hydration and Sodium Channel Block (In Vitro Model)
Primary CBE cells are plated onto collagen-coated, porous membranes maintained at an air-liquid interface to assess maintenance of surface liquid volume over time. At the start of the experiment, each 12 mm snapwell insert was removed from the plate containing air-liquid interface culture media, blotted dry, weighed, and 50 μL of vehicle (0.1% DMSO), or ENaC blocker (10 μM in 0.1% DMSO) applied to the apical surface and the mass was recorded. The inserts were immediately returned to a transwell plate (500 μL, Krebs Ringer Bicarbonate (KRB), pH 7.4 in lower chamber) and placed in a 37° C., 5% CO2 incubator. To reduce artifact due to an apical carbohydrate osmotic gradient upon water loss, glucose was not included in the apical buffer. Compound (1a) was tested and compared to vehicle, and the mass of ASL was monitored serially from 0-8 or 24 h. The mass of surface liquid was converted to volume in μL. Data are reported as % initial volume (100%=50 μL).
The duration of sodium transport inhibition was determined indirectly by measuring the buffer retained after a 50 μl volume of experimental buffer was added to the apical surface of CBE cells.

Setting [3] is: Table 4: HBE cells, 25 μL of 25 μM apical, 2 h, mean ± SD.
The mark [4] stands for this setting: Table 4: HBE cells, 2 h, parent only.
Setting [5] is: Table 5: sheep MCC 4 h post-dose, 24 nmol/kg (300 μM).
[6] abbreviates: Table 5: sheep MCC 4 h post-dose, 240 nmol/kg (3 mM).
Where [7] appears, read: HBE cells, 2 h incubation on the apical surface (37° C.), UPLC.
The mark [8] stands for this setting: Table 3: HBE cells, 25 μL of 25 μM apical, 2 h.
The mark [9] stands for this setting: Table 5: sheep MCC 4 h post-dose, 0.024 nmol/kg (300 nM).
The mark [10] stands for this setting: sheep MCC 4 h post-dose, 0.024 nmol/kg (300 nM) aerosol, mean ± SD (n).
The mark [11] stands for this setting: sheep MCC 4 h post-dose, 0.24 nmol/kg (3 μM) aerosol, mean ± SD (n).

As to `N=C(NCCCCc1ccc(OC[C@H](N)C(N)=O)cc1)NC(=O)c1nc(Cl)c(N)nc1N` [Comparative Example 1, (S)-3,5-diamino-6-chloro-N—(N-(4-(4-(2,3-diamino-3-oxopropoxy)phenyl)butyl)carbamimidoyl)pyrazine-2-carboxamide, reference compound], the “elimination from the apical side” value in data set [1] (HBE cells, 2 h) is recorded as “most of Comparative Example 1 was eliminated from the apical side”. Besides, the “metabolized to the less active carboxylic acid” value in data set [1] (HBE cells, 2 h, apical side) was determined as 83%. Besides, in data set [1] (setting [3]), the “% of Apical Mass as Metabolites (2 h)” value is reported as 83.0 ± 3.5%, the “% of Initial Apical Mass on Basolateral Side (2 h)” value is reported as 8.3 ± 0.2^ % and the “% on Basolateral Side as Metabolites (2 h)” value (from here on “% on Basolateral Side”) is 94.7 ± 1.0%. For the same compound, in data set [1] (setting [4]), the “% of Initial Apical Mass on Basolateral Side as Parent (2 h)” value is recorded as “(1% Parent)” and the “% of Initial Drug Mass on Apical Side as Parent (2 h)” value is given as “(8% Parent)”. In the data set on sheep (Ovis aries, sheep MCC 4 h post-dose, slope, AUC and Maximum Clearance, read-out: ED50 in the sheep MCC model), the ED50 (as a rule, the dose at which the effect has come halfway, by size or by number of responders) is about 0.24 µmol/kg. In the data set on sheep (setting [5]), the “AUC (% CI × h)” value is 6.9 ± 1.0 (3) % CI × h and the “Initial Slope (4.0-4.5 h)” value was 14.5 ± 1.3 (3). Moreover, in the data set with sheep (setting [6]), the “AUC (% CI × h)” value was 14.1 ± 2.2 (6) % CI × h and the “Initial Slope (4.0-4.5 h)” value was 32.2 ± 7.3 (6). Further, the “MCC Highest Submaximal Dose” value in the data set on sheep (sheep) amounted to 3 mM. For the same compound, the “ED50 in the sheep MCC model (concentration of dosing solution)” value with sheep (sheep MCC 4 h post-dose) is about 3000 µM. The “Top Dose in Sheep with no Elevation of Plasma Potassium” value in data set [2] was 300 µM.

Consider `N=C(NCCCCc1ccc(CC[C@H](NCCCN(C[C@H](O)[C@@H](O)[C@H](O)[C@H](O)CO)C[C@H](O)[C@@H](O)[C@H](O)[C@H](O)CO)C(N)=O)cc1)NC(=O)c1nc(Cl)c(N)nc1N` [II-d, 3,5-diamino-N—(N-(4-(4-((S)-4-amino-3-(3-(bis((2S,3R,4R,5R)-2,3,4,5,6-pentahydroxyhexyl)amino)propylamino)-4-oxobutyl)phenyl)butyl)carbamimidoyl)-6-chloropyrazine-2-carboxamide], for which, in data set [1] (setting [7]), the “compound detectable on the basolateral side” value is recorded as “no Compound II-d was detectable on the basolateral side” and the “metabolites on the apical or basolateral sides” value was “no metabolites were detected”. In data set [1] (setting [8]), the “% of Apical Mass as Metabolites (2 h)” value was “None” and the “% on Basolateral Side” value is on record as “None”. The “% of Initial Apical Mass on Basolateral Side (2 h)” value in data set [1] (Table 3: HBE cells, 25 μL of 25 μM apical, 2 h, mean ± SD) is 1.6 ± 0.15%. In data set [1] (setting [3]), the “% of Apical Mass as Metabolites (2 h)” value is reported as “None”, the “% of Initial Apical Mass on Basolateral Side (2 h)” value amounted to 1.6 ± 0.15% and the “% on Basolateral Side” value is given as “None”. In addition, in the data set on sheep (setting [9]), the “AUC (% CI × h)” value is on record as 11.5 ± 0.9 (4) % CI × h and the “Initial Slope (4.0-4.5 h)” value is on record as 26.5 ± 1.4 (4). For the same compound, the “MCC Highest Submaximal Dose” value in the data set with sheep (sheep) was determined as 0.0003 mM. Further, the “potency in sheep MCC relative to Comparative Example 1 (fold lower dose / times more potent)” value in the data set with sheep (sheep MCC 4 hours post-dose) was 10,000. Also, in the data set with sheep (setting [10]), the “AUC (% CI - h)” value is 11.5 ± 0.9 (4) % CI - h and the “Initial Slope (4.0-4.5 h)” value is reported as 26.5 ± 1.4 (4). Also, in the data set on sheep (setting [11]), the “AUC (% CI - h)” value is on record as 19.8 ± 1.4 (4) % CI - h and the “Initial Slope (4.0-4.5 h)” value is given as 41.9 ± 3.7 (4). Besides, the ED50 dose result in the data set on sheep (sheep MCC four hour post-dosing) is listed as “approximately 0.024 nmo/kg”. Further, the “percentage mucus clearance over time (FIG. 6)” value in the data set on sheep (sheep MCC, clinically relevant dose range) is on record as “maximal effect”. In addition, the “MCC effect at the top of the dose response curve” value in the data set on sheep (sheep, 0.24 nmol/kg dose) is listed as “maximum (100%) MCC effect”. Moreover, in the data set with sheep (sheep, four hour post-dosing, all doses tested (0.024, 0.24 and 2.4 nmol/kg)), the “effect on MCC compared to vehicle control” value is given as “enhanced MCC compared to vehicle control”. Also, the “surface liquid retained on apical surface (% initial volume)” value in the data set on Primary CBE cells (8 hours) was 112±11%. In the data set on Primary CBE cells (24 hours), the “surface liquid retained on apical surface (% initial volume)” value was 70.6±8.0% and the “loss of surface liquid relative to the 8-hour measure” value worked out at 16%. Moreover, in data set [2], the “Therapeutic Index, times greater renal safety than Comparative Example 1” value is 10,000-100,000 and the “Top Dose in Sheep with no Elevation of Plasma Potassium” value amounted to 300 µM.

Take `N=C(N)NC(=O)c1nc(Cl)c(N)nc1N` [Amiloride, amiloride, reference compound]: the “surface liquid retained on apical surface (% initial volume)” value in the data set with Primary CBE cells (8 hours) turned out to be 25±19.2%.

As for `N=C(NCCCCc1ccc(C[C@H](NCCCN(C[C@H](O)[C@@H](O)[C@H](O)[C@H](O)CO)C[C@H](O)[C@@H](O)[C@H](O)[C@H](O)CO)C(N)=O)cc1)NC(=O)c1nc(Cl)c(N)nc1N` [XVI-ee], in data set [1] (Table 4: HBE cells, 25 μL of 25 μM apical, 2 h, 37° C., mean ± SD), the “% of Initial Drug Mass on Apical Side (Parent and metabolite, 2 h)” value is given as 77.7 ± 12.2%. Besides, in data set [1] (setting [3]), the “% of Apical Mass as Metabolites (2 h)” value is “None”, the “% of Initial Apical Mass on Basolateral Side (2 h)” value stood at 14.9 ± 1.4% and the “% on Basolateral Side” value is given as “None”.

For the compound `N=C(NCCCCc1ccc(C[C@H](NCCCN(C[C@H](O)[C@@H](O)[C@H](O)[C@H](O)CO)C[C@H](O)[C@@H](O)[C@H](O)[C@H](O)CO)C(N)=O)c2c1CCCC2)NC(=O)c1nc(Cl)c(N)nc1N` [XI-cc, 3,5-diamino-N—(N-(4-(4-((S)-3-amino-2-(3-(bis((2S,3R,4R,5R)-2,3,4,5,6-pentahydroxyhexyl)amino)propylamino)-3-oxopropyl)-5,6,7,8-tetrahydronaphthalen-1-yl)butyl)carbamimidoyl)-6-chloropyrazine-2-carboxamide], in data set [1] (setting [3]), the “% of Apical Mass as Metabolites (2 h)” value was “None”, the “% of Initial Apical Mass on Basolateral Side (2 h)” value was found to be 1.8 ± 0.3% and the “% on Basolateral Side” value was “None”.

In the case of `N=C(NCCCCc1ccc2cc(C[C@H](NCCCN(C[C@H](O)[C@@H](O)[C@H](O)[C@H](O)CO)C[C@H](O)[C@@H](O)[C@H](O)[C@H](O)CO)C(N)=O)ccc2c1)NC(=O)c1nc(Cl)c(N)nc1N` [X-d, 3,5-diamino-N—(N-(4-(6-((S)-3-amino-2-(3-(bis((2S,3R,4R,5R)-2,3,4,5,6-pentahydroxyhexyl)amino)propylamino)-3-oxopropyl)naphthalen-2-yl)butyl)carbamimidoyl)-6-chloropyrazine-2-carboxamide], in data set [1] (setting [3]), the “% of Apical Mass as Metabolites (2 h)” value is recorded as “None”, the “% of Initial Apical Mass on Basolateral Side (2 h)” value is given as 5.0 ± 3.3% and the “% on Basolateral Side” value is on record as “None”.
